Experimental data taken from patent US7973036B2, “2-methyl-5-imino-benzo[D][1 ,3]oxazin[5-B]pyrazole compound, preparation and use thereof” (Qingdao Huanghai Pharmaceutical Co., Ltd, priority 2008, dated 2011).
Entries after “also recorded” stand apart in the source; their conditions may differ.

Assays:
[1] = Anti-DPPH free radical test (spectrophotometry at 517 nm); format: biochemical; conditions: for DPPH free radical scavenging ability with the reaction time / Hydrolysis in the reaction liquid with the reaction time: 30-150 min; for Hydrolysis in the reaction liquid with the reaction time: 95% ethanol, pH 7.5, room temperature; for DPPH free radical scavenging ability E, one value per sample (mean of the five concentrations) / DPPH free radical scavenging ability V / DPPH free radical scavenging ability, comparison between samples / DPPH free radical scavenging ability E / DPPH free radical scavenged by one molecular of compound: 30 min
From the text: Anti-DPPH Free Radical Test
2,2-diphenyl-1-picrylhydrazyl (DPPH) free radical spectrophotometry is a simple method for screening antioxidants, the principle of which is using the characteristic absorption peak of DPPH solution at 517 nm. When free radical scavengers existed, single electron pairing between free radical scavenger and DPPH allowed the absorption of DPPH disappeared, and its decoloring degree and accepted electron number present as quantitative relation, and the antioxidant activity of samples can be evaluated through the amount of cleared DPPH, so the spectrophotometry can be used for quantitative analysis.
DPPH was accurately weighed and placed in a volumetric flask, and diluted to 100 ml with 95% ethanol. The absorbance (A) of DPPH was measured at 517 nm.
DPPH standard curve was shown in FIG. 1, the linear equation of which was as follows: y=0.219x−0.0285; r=0.9994.
DPPH was accurately weighed and placed in a 100 ml volumetric flask, and diluted to 100 ml with 95% ethanol to produce the DPPH solution.
Preparation of Test Drug Solution: the Test Drug was Accurately Weighed and Placed in a 100 ml volumetric flask, dissolved with 20 ml of 95% ethanol, adjusted to pH 7.5 and diluted to 100 ml with 95% ethanol.
5.0 ml of DPPH solution and 2.0 ml test drug solution were taken and placed in a 10 ml volumetric flask, fully shaken at room temperature for a certain time followed by determination of absorption value (A) at 517 nm.
Formula for calculating DPPH free radical scavenging ability of test drug, E (mgDPPH/mg):
Formula for calculating DPPH free radical scavenging ability of test drug, V (mmolDPPH/mmol): […]

[2] = system: cerebral ischemia reperfusion model of middle cerebral artery occlusion (MCAO); experiment: Cerebral ischemia reperfusion model of middle cerebral artery occlusion (MCAO), suture method; format: in vivo, SD rats; conditions: for Variation value of water content in brain (%) / brain tissue MDA content / brain tissue SOD activity / Scores of neurological defect symptoms / Cerebral infarction area (%) / Cerebral infarction area (%) (table title: brain injury): X ± SD; for Cerebral infarction area (%): Table 5; for Cerebral infarction area (%) (table title: brain injury): Table 6, brain injury
Protocol: Cerebral ischemia reperfusion model of middle cerebral artery occlusion (MCAO) was established in SD rats using the suture method of internal carotid artery. Test rats were administrated once 0.5 hours after ischemia reperfusion, then once every 2 hours, for totally three times. Neurological defect symptoms were observed 48 hours after cerebral ischemia.

[3] = test drug C 0.152 (Edaravone), 0.153 (Compound 1, 2), 0.159 (Compound 3) mg/100 ml
[4] = test drug C 0.304 (Edaravone), 0.305 (Compound 1, 2), 0.318 (Compound 3) mg/100 ml
[5] = test drug C 0.608 (Edaravone), 0.610 (Compound 1, 2), 0.635 (Compound 3) mg/100 ml
[6] = test drug C 1.215 (Edaravone), 1.220 (Compound 1, 2), 1.270 (Compound 3) mg/100 ml
[7] = test drug C 2.430 (Edaravone), 2.440 (Compound 1, 2), 2.540 (Compound 3) mg/100 ml
[8] = Nimodipine 0.4 mg/kg, three administrations, n=10
[9] = TR high dose group (6.0 mg/kg), P<0.001
[10] = TR 1.5 mg/kg, three administrations, n=7
[11] = TR 3.0 mg/kg, three administrations, n=8
[12] = TR 6.0 mg/kg, three administrations, n=8

With “2-methyl-benzo[d][1,3]oxazin[5-b]pyrazole-5-one [Compound 1]” the “DPPH free radical scavenging ability with the reaction time” value [1] was “gradually increased”, the “Hydrolysis in the reaction liquid with the reaction time” value [1] was “gradually hydrolyzed into Compound 3” and the “DPPH free radical scavenging ability E, one value per sample (mean of the five concentrations)” value [1] was 1.687 mgDPPH/mg. For the same molecule, the “DPPH free radical scavenging ability V” value [1] was 0.856 mmolDPPH/mmol, the “DPPH free radical scavenging ability, comparison between samples” value [1] was “one-eighth of Compound 3” and the “DPPH free radical scavenging ability E” value [1, 3] was 1.650 mgDPPH/mg. The “DPPH free radical scavenging ability E” value [1, 4] was 1.481 mgDPPH/mg, the “DPPH free radical scavenging ability E” value [1, 5] was 1.252 mgDPPH/mg and the “DPPH free radical scavenging ability E” value [1, 6] was 2.262 mgDPPH/mg. The “DPPH free radical scavenging ability E” value [1, 7] was 1.792 mgDPPH/mg and the “DPPH free radical scavenging ability, comparison with Compound 3” value ([1]; at 150 min) was “equivalent with Compound 3”.

With Cc1cc(=O)n(-c2ccccc2C#N)[nH]1 [Compound 3, 1-(2-cyanophenyl)-3-methylpyrazol-5-one] the “DPPH free radical scavenged by one molecular of compound” value [1] was 1.942 molecular of DPPH free radical, the “DPPH free radical scavenging ability E, one value per sample (mean of the five concentrations)” value [1] was 3.510 mgDPPH/mg and the “DPPH free radical scavenging ability V” value [1] was 1.942 mmolDPPH/mmol. The “DPPH free radical scavenging ability, comparison between samples” value [1] was “the largest; also recorded: slightly stronger than Edaravone”, the “DPPH free radical scavenging ability E” value [1, 3] was 3.067 mgDPPH/mg and the “DPPH free radical scavenging ability E” value [1, 4] was 3.215 mgDPPH/mg. The “DPPH free radical scavenging ability E” value [1, 5] was 2.770 mgDPPH/mg, the “DPPH free radical scavenging ability E” value [1, 6] was 4.032 mgDPPH/mg and the “DPPH free radical scavenging ability E” value [1, 7] was 4.464 mgDPPH/mg.

In the case of CC1=NN(c2ccccc2)C(=O)C1 [Edaravone, edaravone, reference compound], the “DPPH free radical scavenged by one molecular of compound” value [1] is reported as 1.657 molecular of DPPH free radical, the “DPPH free radical scavenging ability E, one value per sample (mean of the five concentrations)” value [1] is reported as 3.752 mgDPPH/mg and the “DPPH free radical scavenging ability V” value [1] is reported as 1.657 mmolDPPH/mmol. For the same molecule, the “DPPH free radical scavenging ability E” value [1, 3] was 3.222 mgDPPH/mg, the “DPPH free radical scavenging ability E” value [1, 4] was 3.195 mgDPPH/mg and the “DPPH free radical scavenging ability E” value [1, 5] was 3.322 mgDPPH/mg. For the same molecule, the “DPPH free radical scavenging ability E” value [1, 6] was 4.785 mgDPPH/mg and the “DPPH free radical scavenging ability E” value [1, 7] was 4.237 mgDPPH/mg.

With COCCOC(=O)C1=C(C)NC(C)=C(C(=O)OC(C)C)C1c1cccc([N+](=O)[O-])c1 (centres unmarked) [Nimodipine, nimodipine, reference compound] the “Variation value of water content in brain (%)” value (“Variation value … (%)” below) ([2]; Nimodipine 0.4 mg/kg, n=7) was 1.6 ± 0.59 %, the “brain tissue MDA content” value ([2]; Nimodipine 0.4 mg/kg, n=7) was 7.6 ± 1.28 nmol/mgprot and the “brain tissue SOD activity” value ([2]; Nimodipine 0.4 mg/kg, n=7) was 114.8 ± 16.4 U/mgprot. The “Scores of neurological defect symptoms” value ([2]; Table 4 series, Nimodipine 0.4 mg/kg, three administrations, 48 hours after cerebral ischemia, n=10) was 1.2 ± 0.41, the “Cerebral infarction area (%)” value [2, 8] was 6.7 ± 6.30^#& % and the “Cerebral infarction area (%) (table title: brain injury)” value [2, 8] was 12.8 ± 12.09^#& %. The “Scores of neurological defect symptoms” value ([2]; Table 7 series, Nimodipine 0.4 mg/kg, n=7) was 1.3 ± 0.86.

In the case of Cc1cc2oc(=N)c3ccccc3n2n1 [TR, 2-methyl-5-imino-benzo[d][1,3]oxazin[5-b]pyrazole], the “Variation value … (%)” value ([2]; TR 1.5 mg/kg, n=7) is reported as 2.1 ± 1.08 %, the “brain tissue MDA content” value ([2]; TR 1.5 mg/kg, n=7) is reported as 6.6 ± 1.30 nmol/mgprot and the “brain tissue SOD activity” value ([2]; TR 1.5 mg/kg, n=7) is reported as 107.1 ± 15.5 U/mgprot. The “Variation value … (%)” value ([2]; TR 3.0 mg/kg, n=8) was 2.0 ± 1.01 %, the “brain tissue MDA content” value ([2]; TR 3.0 mg/kg, n=8) was 6.5 ± 0.81 nmol/mgprot and the “brain tissue SOD activity” value ([2]; TR 3.0 mg/kg, n=8) was 121.6 ± 16.8 U/mgprot. The “Variation value … (%)” value ([2]; TR 6.0 mg/kg, n=9) was 1.2 ± 0.55 %, the “brain tissue MDA content” value ([2]; TR 6.0 mg/kg, n=9) was 5.0 ± 1.10 nmol/mgprot and the “brain tissue SOD activity” value ([2]; TR 6.0 mg/kg, n=9) was 132.7 ± 21.0 U/mgprot. The “MDA content compared with the model group” value [2, 9] was “significantly decreased”, the “brain injury compared with the model group” value [2, 9] was “significantly reduced” and the “cerebral infarction area compared with the model group” value [2, 9] was “significantly reduced”. For the same molecule, the “water content in brain compared with the model group” value [2, 9] was “significantly reduced”, the “SOD activity compared with the model group” value ([2]; TR high dose group (6.0 mg/kg), P=0.007) was “significantly increased” and the “cerebral infarction area compared with the model group” value ([2]; TR low dose group (1.5 mg/kg), P=0.044) was “significantly reduced”. For the same molecule, the “water content in brain compared with the model group” value ([2]; TR low dose group (1.5 mg/kg), P=0.086) was “No obvious difference”, the “MDA content compared with the model group” value ([2]; TR low dose group (1.5 mg/kg), P=0.211) was “No obvious difference” and the “SOD activity compared with the model group” value ([2]; TR low dose group (1.5 mg/kg), P=0.826) was “No obvious difference”. For the same molecule, the “cerebral infarction area compared with the model group” value ([2]; TR medium dose group (3.0 mg/kg), P<0.001) was “significantly reduced”, the “brain injury compared with the model group” value ([2]; TR medium dose group (3.0 mg/kg), P=0.001) was “significantly reduced” and the “water content in brain compared with the model group” value ([2]; TR medium dose group (3.0 mg/kg), P=0.039) was “significantly reduced”. The “MDA content compared with the model group” value ([2]; TR medium dose group (3.0 mg/kg), P=0.141) was “No obvious difference”, the “SOD activity compared with the model group” value ([2]; TR medium dose group (3.0 mg/kg), P=0.157) was “No obvious difference” and the “Scores of neurological defect symptoms” value ([2]; Table 4 series, TR 1.5 mg/kg, three administrations, 48 hours after cerebral ischemia, n=7) was 1.6 ± 0.75. The “Scores of neurological defect symptoms” value ([2]; Table 4 series, TR 3.0 mg/kg, three administrations, 48 hours after cerebral ischemia, n=8) was 1.1 ± 0.44, the “Scores of neurological defect symptoms” value ([2]; Table 4 series, TR 6.0 mg/kg, three administrations, 48 hours after cerebral ischemia, n=8) was 1.0 ± 0.46 and the “neurological defect symptoms compared with the model group” value ([2]; Table 4 series, TR high dose group (6.0 mg/kg), P<0.001) was “significantly reduced”. The “neurological defect symptoms compared with the model group” value ([2]; Table 4 series, TR low dose group (1.5 mg/kg), P=0.001) was “significantly reduced”, the “neurological defect symptoms compared with the model group” value ([2]; Table 4 series, TR medium dose group (3.0 mg/kg), P<0.001) was “significantly reduced” and the “Cerebral infarction area (%)” value [2, 10] was 26.5 ± 13.24 %. For the same molecule, the “Cerebral infarction area (%)” value [2, 11] was 17.4 ± 10.05 %, the “Cerebral infarction area (%)” value [2, 12] was 6.7 ± 6.30^#& % and the “Cerebral infarction area (%) (table title: brain injury)” value [2, 10] was 33.6 ± 16.08 %. For the same molecule, the “Cerebral infarction area (%) (table title: brain injury)” value [2, 11] was 22.7 ± 12.10 %, the “Cerebral infarction area (%) (table title: brain injury)” value [2, 12] was 8.1 ± 5.68^#& % and the “Scores of neurological defect symptoms” value ([2]; Table 7 series, TR 1.5 mg/kg, n=7) was 1.9 ± 0.84. For the same molecule, the “Scores of neurological defect symptoms” value ([2]; Table 7 series, TR 3.0 mg/kg, n=8) was 1.8 ± 0.70, the “Scores of neurological defect symptoms” value ([2]; Table 7 series, TR 6.0 mg/kg, n=9) was 1.0 ± 0.58 and the “neurological defect symptoms compared with the model group” value ([2]; Table 7 series, TR high dose group (6.0 mg/kg), P<0.001) was “significantly relieved”. For the same molecule, the “neurological defect symptoms compared with the model group” value ([2]; Table 7 series, TR low dose group (1.5 mg/kg), P=0.001) was “significantly relieved”, the “neurological defect symptoms compared with the model group” value ([2]; Table 7 series, TR medium dose group (3.0 mg/kg), P<0.001) was “significantly relieved” and the onset dose ([2]; improvement of neurological defect symptoms, infarction area, brain injury, brain edema, lipid peroxidation in cerebral ischemia-reperfusion animals) was 3 mg/kg. For the same molecule, the “DPPH free radical scavenging ability with the reaction time” value [1] was “gradually increased”, the “Hydrolysis in the reaction liquid with the reaction time” value [1] was “gradually hydrolyzed into Compound 3” and the “DPPH free radical scavenging ability E, one value per sample (mean of the five concentrations)” value [1] was 0.419 mgDPPH/mg. For the same molecule, the “DPPH free radical scavenging ability V” value [1] was 0.212 mmolDPPH/mmol, the “DPPH free radical scavenging ability E” value [1, 3] was 0.409 mgDPPH/mg and the “DPPH free radical scavenging ability E” value [1, 4] was 0.368 mgDPPH/mg. The “DPPH free radical scavenging ability E” value [1, 5] was 0.310 mgDPPH/mg, the “DPPH free radical scavenging ability E” value [1, 6] was 0.561 mgDPPH/mg and the “DPPH free radical scavenging ability E” value [1, 7] was 0.445 mgDPPH/mg.
